Measured values taken from patent US6552070B2, “Health food useful for preventing liver and biliary dysfunctions containing an alkanoyl L-carnitine and Silybum marianum extract” (Sigma-Tau HealthScience S.p.A., priority 2000, dated 2003).

Columns and labels:
[1] = system: galactosamine-induced liver intoxication; experiment: Protection against hepatotoxic effects induced by galactosamine in the rat; assay type: in vivo
Experimental: In these tests the method adopted was that described by Reuter (Reuter W., Trends in the Therapy of Liver Diseases Proceeding, Ed. A. Bertelli, pp. 121, 1974, Karger Basel 1975).
Rats weighing approximately 250 g received daily oral administrations for two days consecutively of 200 mg/kg of isovaleryl L-carnitine or 200 mg/kg of propionyl L-carnitine or 100 mg/kg of silymarin or a combination of these compounds at the same doses. After 24 hours, the same rats were administered 400 mg/kg i.p. of galactosamine. After a further 24 hours, blood samples taken from the animals were used to determine both glutamic-oxalacetic […] (GOT) and the bilirubin present in plasma, according to the method described by Keppler (Keppler D., Exp. Mol. Pathol, 9, 279, 1968).

[2] = system: rat liver cells; experiment: Protection against CCl4 toxicity on isolated liver cell cultures; conditions: CCl4 100 mg L^−1; for Concentration of AlaAT in supernatant of liver cells exposed to CCl4 / Concentration of AspAT in supernatant of liver cells exposed to CCl4: I 100 mg L^−1, P 100 mg L^−1, S 50 mg L^−1; for Inhibition of toxic and lipoperoxidative effects caused by CCl4 on liver cell cultures (in words): summary of Tables 1 and 2
[3] = rat plasma 24 hours after galactosamine 400 mg/kg i.p., oral pretreatment two days, alkanoyl L-carnitine 200 mg/kg, silymarin 100 mg/kg

Structure (SMILES)	Protective effect against galactosamine-induced liver intoxication (in words) ([1]; rat)	Bilirubin [1, 3]	GOT [1, 3]	GluDH ([1]; rat, 24 hours after galactosamine 400 mg/kg i.p., oral pretreatment two days, alkanoyl L-carnitine 200 mg/kg, silymarin 100 mg/kg)	Concentration of AlaAT in supernatant of liver cells exposed to CCl4 ([2]; 4 hours)	Concentration of AspAT in supernatant of liver cells exposed to CCl4 ([2]; 4 hours)	Concentration of AlaAT in supernatant of liver cells exposed to CCl4 ([2]; 8 hours)	Concentration of AspAT in supernatant of liver cells exposed to CCl4 ([2]; 8 hours)	Concentration of AlaAT in supernatant of liver cells exposed to CCl4 ([2]; 16 hours)	Concentration of AspAT in supernatant of liver cells exposed to CCl4 ([2]; 16 hours)	Inhibition of toxic and lipoperoxidative effects caused by CCl4 on liver cell cultures (in words) [2]	Enzyme activity (GOT) and bilirubin after galactosamine (in words) ([1]; rat, oral pretreatment, galactosamine 400 mg/kg i.p.)
CC(C)CC(=O)O[C@H](CC(=O)[O-])C[N+](C)(C)C [Isovaleryl L-carnitine, isovaleryl L-carnitine]	protective activity	0.15 ± 0.04	215 ± 30.5	64 ± 6.8	19.4 ± 2.4 nmol/min/L	6.9 ± 1.1 nmol/min/L	16.7 ± 3.1 nmol/min/L	6.2 ± 0.9 nmol/min/L	15.6 ± 2.7 nmol/min/L	5.5 ± 1.2 nmol/min/L	partly inhibiting	–
CCC(=O)O[C@H](CC(=O)[O-])C[N+](C)(C)C [Propionyl L-carnitine, propionyl L-carnitine]	–	–	–	–	22.3 ± 4.1 nmol/min/L	7.5 ± 0.9 nmol/min/L	18.4 ± 2.3 nmol/min/L	5.5 ± 1.2 nmol/min/L	16.6 ± 1.9 nmol/min/L	5.2 ± 1.4 nmol/min/L	partly inhibiting	reduced
